Measurements taken from publication PMC7076710, “Synthesis, Identification, and Structure–Activity Relationship Analysis of GATA4 and NKX2-5 Protein–Protein Interaction Modulators” (Journal of Medicinal Chemistry, 2019).
One block for each compound: values may come before it.

Target: T1, GATA4–NKX2-5 transcriptional synergy (Mus musculus, UniProt P42582+Q08369)
T1 construct: expressed in transfected cells; host or cells: COS-1
Assay: GATA4–NKX2-5 transcriptional synergy luciferase reporter assay (3xNKE reporter, COS-1 cells)
Type: cell-based
Method: To screen compounds for the GATA4–NKX2-5 interaction, we have developed a luciferase reporter assay based on their property to activate gene transcription synergistically through the NKX2-5 binding site on DNA.[28] In this assay, we transfected mammalian COS-1 cells with protein expression vectors for GATA4 and NKX2-5 proteins together with artificial luciferase reporter vector containing three high affinity binding sites for NKX2-5 (NKE). […] All 257 compounds were tested in two concentrations, 3 and 10 μM. Compounds either inhibited, enhanced, or had no effect on the GATA4–NKX2-5 transcriptional synergy. To investigate the selectivity of the active compounds, we tested their effects on NKX2-5 transcriptional activity by using the same luciferase reporter vector as in transcriptional synergy assay with three NKE sites (Figure 3B). Furthermore, we used GATA luciferase reporter assay to examine if compounds have an effect on GATA4 transcriptional activity. In this assay, we cotransfected the cells with a GATA4 protein expression vector and a reporter vector with tandem GATA4 binding sites (Figure 3C). Previously we have reported that compound 1 inhibited the GATA4–NKX2-5 transcriptional synergy at micromolar concentrations (IC50 = 3 μM).[29]
The plasmids expressing mouse GATA4 protein, pMT2-GATA4, and empty pMT2 were gifts from D. B. Wilson (Department of Pediatrics, St. Louis Children’s Hospital, St. Louis, MO).[44] The plasmids expressing mouse NKX2-5 protein, pMT2-NKX2-5, have been described earlier.[28] The luciferase reporter plasmid used in GATA4–NKX2-5 transcriptional synergy assay and NKX transcriptional assay, pGL3-3xHA, contains three high affinity binding sites for NKX2-5.[28] The luciferase reporter plasmid used in GATA transcriptional assay, NP-112, contains tandem GATA-sites and minimal promoter of rat brain natriuretic peptide (BNP) gene.[45] The pGL3-BNP luciferase reporter containing −534/+4 bp rat BNP proximal promoter described previously was used in hypertrophy assay.[46]
The primary screening assay of compounds’ effect on GATA4–NKX2-5 transcriptional synergy and COS-1 cell culturing has been described earlier.[33] […] (Kinnunen et al., unpublished observation). Briefly, COS-1 cells were seeded at 14 000 cells/well in Isoplate-96 microplates (PerkinElmer, Turku, Finland) and grown overnight. The cells were transfected with the luciferase reporter plasmid pGL3-3xHA 100 ng/well and equal amounts of expression plasmids pMT2-GATA4 and pMT2-NKX2-5 total 50 ng/well. To verify the synergistic effect, the cells were transfected with pMT2-GATA4 or pMT2-NKX2-5 25 ng/well, and the total DNA concentration was adjusted to 50 ng/well with empty pMT2 plasmid. In NKX2-5 and GATA4 luciferase reporter assays, the cells were transfected with reporter plasmid pGL3-3xHA or NP-112 (100 ng/well) and expression plasmid pMT2-NKX2-5 or pMT2-GATA4 (25 ng/well). The ratio of DNA/transfection reagent (Fugene 6, Promega) was 1:3 in all assays. The transfections were performed in serum and antibiotics free media for 6 h. The cells were treated with compounds or vehicle (0.1% DMSO) for 24 h, and the luminescence was measured using neolite Reporter Gene Assay System (PerkinElmer, Turku, Finland) and Victor2 plate reader (PerkinElmer, Turku, Finland).
Raw luciferase data were analyzed in Excel, and clear outliers were removed from triplicates by using the Grubb’s test. Data analysis was performed using R.[49] The luciferase data were first normalized on the basis of the combined mean value of controls. For data visualization and creation of figures, the following R packages were used: ggplot2, cowplot, RColorBrewer, and pheatmap. The heatmaps of the toxicity data were produced with GraphPad Prism 7.00 (GraphPad Software, La Jolla, CA). Statistical significance of luciferase reporter assay data was evaluated by randomized block analysis of variance followed by Dunnett’s post hoc test. […]

[1] = COS-1, compound 3 µM, luciferase reporter activity, spread in separate STDEV column
[2] = COS-1, compound 10 µM, luciferase reporter activity, spread in separate STDEV column
[3] = COS-1, compound 3 µM, luciferase reporter activity relative to control
[4] = COS-1, compound 10 µM, luciferase reporter activity relative to control
[5] = COS-1, 3 µM, luciferase reporter activity, % of control
[6] = COS-1, 10 µM, luciferase reporter activity, % of control
[7] = COS-1, compound at 3 µM, luciferase reporter activity, % of control
[8] = COS-1, compound at 10 µM, luciferase reporter activity, % of control
[9] = 3 µM compound, GATA4–NKX2-5 transcriptional synergy reporter, COS-1 cells
[10] = COS-1, GATA4-NKX2-5 transcriptional synergy luciferase reporter assay, compound at 3 µM
[11] = COS-1, GATA4-NKX2-5 transcriptional synergy luciferase reporter assay, compound at 10 µM

T1 sequence (Q08369 whole entry): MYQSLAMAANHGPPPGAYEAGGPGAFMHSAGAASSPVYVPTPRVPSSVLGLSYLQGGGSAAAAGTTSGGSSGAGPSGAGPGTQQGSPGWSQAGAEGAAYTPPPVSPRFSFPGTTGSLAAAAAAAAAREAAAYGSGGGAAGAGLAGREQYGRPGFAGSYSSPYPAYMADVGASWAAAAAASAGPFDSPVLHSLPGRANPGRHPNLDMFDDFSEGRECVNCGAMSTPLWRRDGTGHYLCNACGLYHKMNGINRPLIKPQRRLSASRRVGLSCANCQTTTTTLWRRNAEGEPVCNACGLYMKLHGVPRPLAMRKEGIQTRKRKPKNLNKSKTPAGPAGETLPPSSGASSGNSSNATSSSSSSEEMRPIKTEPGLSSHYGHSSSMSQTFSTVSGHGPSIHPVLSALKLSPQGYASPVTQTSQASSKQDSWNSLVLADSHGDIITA
T1 sequence (P42582 whole entry): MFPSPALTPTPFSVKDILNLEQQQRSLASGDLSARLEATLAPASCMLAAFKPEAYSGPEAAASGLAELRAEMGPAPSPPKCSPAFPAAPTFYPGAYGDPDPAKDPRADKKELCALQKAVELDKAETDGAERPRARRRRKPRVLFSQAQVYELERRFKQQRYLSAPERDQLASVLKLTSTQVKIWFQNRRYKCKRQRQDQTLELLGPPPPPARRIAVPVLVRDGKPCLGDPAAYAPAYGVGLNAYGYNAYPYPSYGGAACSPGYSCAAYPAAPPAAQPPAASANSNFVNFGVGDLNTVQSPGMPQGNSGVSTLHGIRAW

- activity at 3 µM [1]: 117%
- activity at 10 µM [2]: 127%
Compound: Cc1onc(-c2ccccc2)c1C(=O)N(C)c1ccc(C(=O)O)cc1 [Compound 68]

- activity at 3 µM [3]: 86.8%
Compound: CCN(CC)c1ccc(NC(=O)c2nnn(C)c2-c2ccccc2)cc1 [Compound 47p]

- activity at 3 µM [3]: 106%
- activity at 10 µM [4]: 105%
Compound: Cc1onc(-c2ccccc2)c1COc1ccc(C(=O)N(C)CCCO)cc1 [Compound 36a]

- activity at 3 µM [5]: 80.4%
- activity at 10 µM [6]: 114%
Compound: CCN(CC)c1ccc(C(=O)On2nnc3ccccc32)cc1 [SI22]

- activity at 3 µM [7]: 94.2%
- activity at 10 µM [8]: 89.2%
Compound: COc1ccc(-c2cc(N=Cc3ccc(N(C)C)cc3)n[nH]2)cc1 [SI91]

- activity at 3 µM [3]: 103%
Compound: CCN(CC)c1ccc(CN(C)c2c(-c3ccccc3)noc2C)cc1 [Compound 30a, N-[4-(Diethylamino)benzyl]-N,5-dimethyl-3-phenylisoxazol-4-amine]

- activity at 3 µM [3]: 101%
- activity at 10 µM [4]: 100%
Compound: COC(=O)c1c(-c2ccccc2)nnn1CC1CCCO1 (centres unmarked) [SI61]

- activity at 3 µM [3]: 110%
- activity at 10 µM [4]: 100%
Compound: CCN(CC)c1ccc(NCc2ccncc2)cc1 [SI41]

- activity at 3 µM [7]: 95%
- activity at 10 µM [8]: 101%
Compound: Cc1onc(-c2cccc([N+](=O)[O-])c2)c1C(=O)Nc1ccc(N(C)C)cc1 [Compound 40]

- activity at 3 µM [5]: 97.7%
- activity at 10 µM [6]: 101%
Compound: CCN(CC)c1ccc(NC(=O)c2nn(-c3ccccc3)nc2C)cc1 [Compound 47b]

- activity at 3 µM [3]: 97.6%
- activity at 10 µM [4]: 78.6%
Compound: CCCCOC(=O)c1ccc(N=Nc2c(-c3ccc(OC)cc3)n[nH]c2N)cc1 [SI96]

- activity at 3 µM [9]: 95.1%
Compound: CCN(CC)c1ccc(NC(=O)c2c(-c3ccc(Br)cc3)noc2C)cc1 [Compound 39i]

- activity at 3 µM [3]: 102%
- activity at 10 µM [4]: 95%
Compound: Cc1cc(NC(=O)c2c(C)noc2-c2ccccc2)ccc1C(C)C [SI72]

- activity at 3 µM [9]: 99%
- activity at 10 µM (10 µM compound, GATA4–NKX2-5 transcriptional synergy reporter, COS-1 cells): 103%
Compound: CCN(CC)c1ccc(NCc2c[nH]nc2-c2cccs2)cc1 [SI83]

- activity at 3 µM [3]: 83.6%
- activity at 10 µM [4]: 69.1%
Compound: CCN(CC)c1ccc(NC(=O)c2c(-c3ccccc3)nnn2CC(C)C)cc1 [SI68]

- activity at 3 µM [5]: 95.2%
Compound: Cc1cc(NC(=O)c2c(-c3ccccc3)noc2C)ccc1C(C)C [Compound 4e]

- activity at 3 µM [5]: 92.6%
- activity at 10 µM [6]: 82.9%
Compound: Cc1onc(-c2ccccc2)c1COCc1ccc(OC(F)(F)F)cc1 [SI49]

- activity at 3 µM [1]: 115%
- activity at 10 µM [2]: 104%
Compound: CCSCCOC(=O)c1ccc(NC(=O)c2c(-c3ccccc3)noc2C)cc1 [SI1]

- activity at 3 µM [7]: 116%
- activity at 10 µM [8]: 78.3%
Compound: Cc1cc(NC(=O)c2c(-c3ccccc3)noc2C)ncc1[N+](=O)[O-] [SI10]

- activity at 3 µM [3]: 90%
Compound: CCN(CC)c1ccc(CN(C(=O)Nc2ccc(C#N)cc2)c2c(-c3ccccc3)noc2C)cc1 [Compound 30d]

- activity at 3 µM [7]: 90.6%
Compound: CCN(CC)c1ccc(NC(=S)c2c(-c3ccccc3)noc2C)cc1 [Compound 23, N-[4-(Diethylamino)phenyl]-5-methyl-3-phenylisoxazole-4-carbothioamide]

- activity at 3 µM [7]: 76.3%
Compound: CCN(c1ccc(NC(=O)c2c(-c3ccccc3)noc2C)cc1[N+](=O)[O-])C(C)C [Compound 8, N-[4-[Ethyl(isopropyl)amino]-3-nitrophenyl]-5-methyl-3-phenylisoxazole-4-carboxamide]

- activity at 3 µM [7]: 90.6%
- activity at 10 µM [8]: 124%
Compound: Cc1onc(-c2ccccc2)c1NC(=O)c1ccc(N2CCN(C)CC2)cc1 [Compound 67]

- activity at 10 µM [6]: 108%
Compound: CCN(CC)c1ccc(NC(=O)c2ccsc2)cc1 [Compound 55]

- activity at 3 µM [5]: 113%
- activity at 10 µM [6]: 97.4%
Compound: CCN(CC)c1ccc(C(=O)Nc2c(C)noc2C)cc1 [SI21]

- activity at 3 µM [5]: 80.2%
Compound: CCN(CC)c1ccc(N(Cc2ccccc2)C(=O)c2c(-c3ccccc3)noc2C)cc1 [Compound 25c]

- activity at 3 µM [1]: 103%
Compound: Cc1onc(-c2ccccc2)c1C(=O)Nc1ccc2c(c1)C(=O)CC2 [Compound 4a, 5-Methyl-N-(3-oxo-2,3-dihydro-1H-inden-5-yl)-3-phenylisoxazole-4-carboxamide]

- activity at 3 µM [1]: 101%
- activity at 10 µM [2]: 99.2%
Compound: N#Cc1ccc(NC(=O)c2cc(-c3ccco3)on2)cc1 [SI113]

- activity at 3 µM [3]: 78.8%
- activity at 10 µM [4]: 65%
Compound: CCN(CC)c1ccc(NC(=O)c2c(-c3ccccc3)nnn2CCC2OCCO2)cc1 [SI58]

- activity at 3 µM [5]: 73.3%
- activity at 10 µM [6]: 61.2%
Compound: Nc1c(/N=N/c2ccc([N+](=O)[O-])cc2)c(-c2ccccc2)nn1-c1ccccc1 [SI97]

- activity at 3 µM [7]: 96.5%
Compound: CCC(O)c1ccc(OCc2c(-c3ccccc3)noc2C)cc1 (racemic) [Compound 34d, (rac)-1-[4-[(5-Methyl-3-phenylisoxazol-4-yl)methoxy]phenyl]propan-1-ol]

- activity at 3 µM [3]: 87.7%
Compound: Cc1onc(-c2ccccc2)c1COc1ccc(C(=O)OCC(C)C)cc1 [Compound 35e]

- activity at 3 µM [1]: 96.6%
- activity at 10 µM [2]: 102%
Compound: N#Cc1ccc(NC(=O)c2cc(-c3ccncc3)[nH]n2)cc1 [SI118]

- activity at 3 µM [7]: 81.2%
- activity at 10 µM [8]: 70.1%
Compound: CCN(CC)c1ccc(NC(=S)c2c(-c3c(Cl)cccc3Cl)noc2C)cc1 [SI53]

- activity at 3 µM [9]: 94.5%
Compound: CCN(CC)c1ccc(NC(=O)c2c(C(F)(F)F)nn(C)c2Oc2ccccc2)cc1 [Compound 47q]

- activity at 3 µM [3]: 97.7%
- activity at 10 µM [4]: 107%
Compound: CCCOC(=O)c1ccc(OCc2c(-c3ccccc3)noc2C)cc1 [Compound 34c, Propyl 4-[(5-Methyl-3-phenylisoxazol-4-yl)methoxy]benzoate]

- activity at 3 µM [7]: 98.9%
- activity at 10 µM [8]: 102%
Compound: CN(C)c1ccc(/C=N/c2c(-c3ccccc3)nc3ncccn23)cc1 [SI46]

- activity at 3 µM [7]: 94.1%
- activity at 10 µM [8]: 95.8%
Compound: CCN(CC)c1ccc(C(=O)Nc2c(C(N)=O)oc3ccccc23)cc1 [SI106]

- activity at 3 µM [10]: 85.4%
- activity at 10 µM [11]: 61.6%
Compound: CCN(CC)c1ccc(NC(=O)c2c(-c3ccccc3)noc2C)c(C)c1 [SI132]

- activity at 3 µM [10]: 106%
- activity at 10 µM [11]: 91.7%
Compound: CCC1(C)Oc2ccc(NC(=O)c3cnoc3-c3ccc(C)o3)cc2O1 (centres unmarked) [SI125]

- activity at 3 µM [3]: 82.9%
- activity at 10 µM [4]: 82.5%
Compound: CCN(CC)c1ccc(N(CCC2OCCO2)C(=O)c2c(-c3cccc([N+](=O)[O-])c3)noc2C)cc1 [SI29]

- activity at 3 µM [7]: 106%
- activity at 10 µM [8]: 113%
Compound: Cc1onc(-c2ccccc2)c1C(=O)N(N)S(=O)(=O)c1ccccc1 [SI27]

- activity at 3 µM [5]: 105%
- activity at 10 µM [6]: 89.1%
Compound: Cc1onc(-c2ccccc2)c1C(=O)Nc1ccc(Nc2ccccc2)cc1 [SI5]

- activity at 3 µM [3]: 88.2%
- activity at 10 µM [4]: 72.5%
Compound: CCN(CC)c1ccc(NC(=O)c2c(-c3ccccc3)nnn2CC2CCCO2)cc1 (centres unmarked) [SI62]

- activity at 3 µM [3]: 113%
- activity at 10 µM [4]: 104%
Compound: CC(=O)c1ccc(OCc2cc(-c3ccc(CC(C)C)cc3)on2)cc1 [SI107]

- activity at 3 µM [5]: 90.7%
- activity at 10 µM [6]: 112%
Compound: CCN(CC)c1ccc(NC(=O)c2ncoc2-c2ccccc2)cc1 [Compound 47a]

- activity at 3 µM [3]: 81.6%
Compound: CCN(CC)c1ccc(N(CCF)C(=O)c2c(-c3ccccc3)noc2C)cc1 [Compound 25b]
